{"source": "patent US7615514B2", "about": "“Selective herbicides based on substituted arylsulphonylaminocarbonyl-triazolinones and safeners” (Bayer CropScience AG, priority 2001, dated 2009)", "test_system": "Winter barley", "assay": "Post-emergence test/greenhouse: damage to crop plants", "format": "in vivo", "conditions": "greenhouse, about three weeks after application", "description": "The active compound (flucarbazone-sodium and propoxycarbazone-sodium were each used as WG 70) or safener components are in each case dissolved in a few ml (generally 2-3 ml) of solvent (generally acetone or N,N-dimethyl-formamide), and the solutions are combined and then—if appropriate after addition of an emulsifier—diluted with water to the desired concentration. In general, an aqueous spray liquor was prepared using 0.5% of the additive Renex-36. The test plants are grown under controlled conditions (temperature, light, atmospheric humidity) in a greenhouse. The test plants are sprayed when they have reached a height of 5-15 cm. The concentration of the spray liquor is chosen such that the particular amounts of active compound desired are applied in 500 l of water/ha. After spraying, the pots with the test plants are kept in a greenhouse chamber under controlled conditions (temperature, light, atmospheric humidity) until the test has ended. About three weeks after the application, the degree of damage to the crop plants is rated in % damage in comparison to the development of the untreated control. The figures denote: • 0%=no damage (like untreated control) • 100%=total destruction/damage"}
{"smiles": "COc1nn(C(=O)NS(=O)(=O)c2ccccc2OC(F)(F)F)c(=O)n1C", "note": "[flucarbazone-sodium, 2-(2-trifluoromethoxyphenylsulphonylaminocarbonyl)-4-methyl-5-methoxy-2,4-dihydro-3H-1,2,4-triazol-3-one]", "values": [{"measurement": "Damage Winter barley (in %)", "setting": "application rate 8 g of a.i./ha", "result": 40, "unit": "%"}]}
{"smiles": "CCCOc1nn(C(=O)NS(=O)(=O)c2ccccc2C(=O)OC)c(=O)n1C", "note": "[propoxycarbazone-sodium, 2-(2-methoxycarbonylphenylsulphonylaminocarbonyl)-4-methyl-5-n-propoxy-2,4-dihydro-3H-1,2,4-triazol-3-one]", "values": [{"measurement": "Damage Winter barley (in %)", "setting": "application rate 2 g of a.i./ha", "result": 35, "unit": "%"}, {"measurement": "Damage Winter barley (in %)", "setting": "application rate 4 g of a.i./ha, 0%=no damage, 100%=total destruction", "result": 60, "unit": "%"}]}
